“And” between values parts separate entries of the source, which are not always exact repeats. Equal values may be shown once. Read-outs that look alike come from different tables or passages of the source.
Columns and labels:
[1] = tested on: bladder capacity; assay: Dilute acetic acid irritative model, bladder capacity by cystometry in urethane-anesthetized rats; type: in vivo, rat; details: for effectiveness of drug alone on bladder capacity: i.v.; for effective dose range of the drug in the isobologram combinations compared with the drug alone: individual animals, return to 31% of saline control
Experimental: Subsequently, three series at markedly lower doses and at different dose ratios were performed for the purposes of isobologram construction (n=4/group).
Subsequent studies aimed at isobologram construction combined the drugs in dose combinations as shown in the table below (low, middle and high doses for each drug paired).
The abdominal cavity was moistened with saline and closed by covering with a thin plastic sheet in order to maintain access to the bladder for emptying purposes.
Bladder capacity data for each animal were normalized to “% Recovery from Irritation,” and this index was used as the measure of efficacy. Data from experiments in which each of the drugs were administered alone were utilized to create theoretical populations of additive effects for each dose (low, mid and high), and these were compared by one-tailed t-test (individual dose comparisons) and by 2-Way ANOVA (across doses) to the actual combination drug data. The means and standard deviations of each individual treatment's “dose-matched” (low, middle, and high) responses were added together to estimate the mean and standard deviation of the theoretical additive populations for which to compare to the actual data obtained from the combination experiments. The theoretical additive effect population N=(Nantimuscarinic+Nα28 subunit modulator)−1. P<0.050 was considered significant.
Isobologram construction consisted of two methods, both utilizing the same data, but plotting the results either as group means or by individual responses. […] When utilizing individual responses for both drugs alone and the combinations listed in the above table, the target value was 31% of saline control. […] For statistical purposes, the data were analyzed making comparisons for each drug, regardless of whether alone or in combination.

[2] = for pharmacokinetic drug-drug interaction between oxybutynin and gabapentin: rat, i.v. 3 mg/kg oxybutynin and 100 mg/kg gabapentin
[3] = tested on: nociception induced by formalin and carrageenan; mechanical hyperalgesia and mechanical/thermal allodynia; details: Rose et al. (2002); cited from earlier work
[4] = tested on: painful symptoms associated with diabetic peripheral neuropathy, post-herpetic neuralgia, and neuropathic pain; details: double-blind, placebo-controlled trials; cited from earlier work
[5] = preclinical and clinical studies, cited from earlier work
[6] = tested on: beta-adrenergic blocking; details: cited from earlier work
[7] = analyte gabapentin in rat plasma, i.v. 100 mg/kg gabapentin alone (Gab) or with 3 mg/kg oxybutynin (Com), group Mean
[8] = analyte gabapentin in rat plasma, i.v. 100 mg/kg gabapentin alone (Gab) or with 3 mg/kg oxybutynin (Com), group Mean, outliers excluded
[9] = analyte gabapentin in rat plasma, i.v. 100 mg/kg gabapentin alone (Gab) or with 3 mg/kg oxybutynin (Com), individual animals

## NCC1(CC(=O)O)CCCCC1 [Gab, 1-(aminomethyl) cyclohexaneacetic acid]
[1]
  effectiveness of drug alone on bladder capacity: modest effectiveness
  effective dose range of the drug in the isobologram combinations compared with the drug alone: significantly lower
[2]; [7]
  AUC0-∞: 1.62e+07 ng·min/mL
  CL: 6.52 mL/min/kg
  Vz: 1.242 L/kg
  t1/2: 128 min
[2]; [8]
  AUC0-t: 9.45e+06 ng·min/mL
  Cmax: 98.6 µg/mL
[2]; [9]
  AUC0-∞: 1.95e+07 ng·min/mL
  CL: 5.12 mL/min/kg
  Tmax: 15 min and 30 min
  Vz: 0.91 L/kg and 0.89 L/kg
[2]; rat plasma, i.v., Table 2
  comparison of Cmax and AUC0-T data for gabapentin between single-drug group and combination (Com) group: no appreciable difference
[2]
  pharmacokinetic drug-drug interaction between oxybutynin and gabapentin: No evidence of drug-drug interaction
[3]
  effect in neuropathic pain models of mechanical hyperalgesia and mechanical/thermal allodynia: inhibitory effect
  effect on nociception induced by formalin and carrageenan: block the tonic phase of nociception
[4]
  efficacy for painful symptoms associated with diabetic peripheral neuropathy, post-herpetic neuralgia, and neuropathic pain: effective treatment

## CCN(CC)CC#CCOC(=O)C(O)(c1ccccc1)C1CCCCC1 (stereo not drawn) [Oxy, 4-diethylaminio-2-butynyl phenylcyclohexyglycolate]
[1]
  effectiveness of drug alone on bladder capacity: modest effectiveness
  effective dose range of the drug in the isobologram combinations compared with the drug alone: significantly lower
[2]
  pharmacokinetic drug-drug interaction between oxybutynin and gabapentin: No evidence of drug-drug interaction

## CC(OC(=O)NCC1(CC(=O)O)CCCCC1)OC(=O)C(C)C (stereo not drawn) [XP13512]
[5]; oral
  blood levels of gabapentin across a broad range of oral doses: dose proportional
[5]
  absorption from the large intestine: absorbed efficiently

## CCNCC#CCOC(=O)C(O)(c1ccccc1)C1CCCCC1 (stereo not drawn) [desethyl oxybutynin, N-desethyl-oxybutynin]
[2]; rat plasma, i.v., Table 4
  comparison of Cmax and AUC0-t data for desethyl oxybutynin between oxybutynin (Oxy) group and combination (Com) group: no appreciable difference

## CC(C)NCC(O)COc1cccc2ccccc12 (stereo not drawn) [propranolol]
[6]
  potency of L-enantiomer relative to D-enantiomer: 100 times
